Measurements reported in patent US20210061872A1 (PROTAGONIST THERAPEUTICS, published 2021).

Key:
PV patients = assay: Phase 2 study in phlebotomy-requiring Polycythemia vera
Source text: Eligible patients were enrolled in the 28-week dose finding part of the Phase 2 trial. […] Body iron status was quantified by monitoring serum ferritin, serum iron, transferrin saturation (TSAT), mean corpuscular volume (MCV) and mean corpuscular hemoglobin (MCH).

Cynomolgus monkeys [1] = assay: repeat-dose study, 13 weekly SC doses, limiting erythropoiesis; format: in vivo
Source text: A cohort of animals (4/sex/group) were sacrificed on Day 92 (Main), and the remaining animals (2/sex/group) were sacrificed on Day 120 following a 35-day recovery period (Recovery).

healthy subjects = assay: Phase I single dose study; format: in vivo, human; conditions: 62 healthy subjects
Source text: Compound A is a hepcidin mimetic agent in clinical studies for multiple blood disorders.

human ferroportin = biological target: T1, human ferroportin (Homo sapiens, UniProt Q9NP59); assay: ferroportin-GFP internalization/degradation assay in HEK293 cells; format: cell-based; conditions: read-out: Potency EC50
T1 construct: expressed in transfected cells
T1 sequence (Q9NP59 1-571): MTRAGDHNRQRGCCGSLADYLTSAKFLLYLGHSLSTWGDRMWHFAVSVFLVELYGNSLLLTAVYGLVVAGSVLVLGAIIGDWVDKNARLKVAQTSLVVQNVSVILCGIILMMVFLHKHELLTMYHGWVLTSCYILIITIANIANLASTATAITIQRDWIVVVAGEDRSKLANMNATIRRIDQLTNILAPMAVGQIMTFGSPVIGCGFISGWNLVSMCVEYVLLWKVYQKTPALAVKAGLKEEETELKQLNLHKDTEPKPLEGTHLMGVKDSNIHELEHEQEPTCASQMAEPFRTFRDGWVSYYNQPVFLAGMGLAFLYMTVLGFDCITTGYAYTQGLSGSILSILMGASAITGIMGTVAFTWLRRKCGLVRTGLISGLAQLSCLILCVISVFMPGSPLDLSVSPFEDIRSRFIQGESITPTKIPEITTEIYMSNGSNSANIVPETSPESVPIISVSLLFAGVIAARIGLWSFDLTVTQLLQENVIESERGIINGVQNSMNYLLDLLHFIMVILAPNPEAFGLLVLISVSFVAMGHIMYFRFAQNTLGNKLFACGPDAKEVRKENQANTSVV

[2] = system: patients with phlebotomy-dependent PV and splenomegaly; conditions: through week 32; 6 events with BAT; cited from earlier work
Cynomolgus monkeys [3] = assay: PK-PD experiment, serum iron (Cobas IRON2); format: in vivo
Method: Iron content in plasma/serum was measured using a colorimetric assay on the Cobas c 111 according to instructions from the manufacturer of the assay (assay: IRON2: ACN 661).

PV mice = conditions: cited from earlier work
[4] = biological target: T2, human ferroportin (SLC40A1) fused in frame with GFP, stably expressed on HEK293 cells (human, UniProt Q9NP59 1-571); assay: cell-based or functional assay
T2 sequence (looked up): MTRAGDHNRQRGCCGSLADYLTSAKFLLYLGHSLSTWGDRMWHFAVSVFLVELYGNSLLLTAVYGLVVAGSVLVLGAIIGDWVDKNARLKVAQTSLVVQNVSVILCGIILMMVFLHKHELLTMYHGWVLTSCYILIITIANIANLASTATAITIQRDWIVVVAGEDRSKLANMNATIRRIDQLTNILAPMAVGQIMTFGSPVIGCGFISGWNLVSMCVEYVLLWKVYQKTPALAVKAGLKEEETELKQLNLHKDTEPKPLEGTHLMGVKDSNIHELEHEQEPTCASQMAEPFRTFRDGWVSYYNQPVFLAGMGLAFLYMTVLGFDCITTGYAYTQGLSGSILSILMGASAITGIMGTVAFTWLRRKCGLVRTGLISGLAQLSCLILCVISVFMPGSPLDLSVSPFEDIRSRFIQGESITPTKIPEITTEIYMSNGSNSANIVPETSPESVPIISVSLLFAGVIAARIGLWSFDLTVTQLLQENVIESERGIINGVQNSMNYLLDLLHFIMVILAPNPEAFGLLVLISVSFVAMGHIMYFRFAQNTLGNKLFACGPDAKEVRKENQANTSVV

[5] = SC doses of 10 mg to 80 mg, various times after dosing

With CCCCCCCCCCCCCCCC(=O)N[C@@H](CCC(=O)NCCCC[C@@H]1NC(=O)[C@H]([C@@H](C)CC)NC(=O)[C@@H](NC(=O)[C@@H]2CCCN2C(=O)[C@H](Cc2ccccc2)NC(=O)[C@H](Cc2c[nH]cn2)NC(=O)[C@@H](NC(=O)[C@H](CC(=O)O)NC(=O)CC(C)C)[C@@H](C)O)CSSC[C@@H](C(=O)N[C@@H](CCCCN)C(N)=O)NC(=O)CNC(=O)[C@H](CCCCN)NC(=O)[C@H](CO)NC(=O)[C@H](CCCNC(=N)N)NC(=O)[C@@H]2CCCN2C(=O)[C@H](CCC(=O)O)NC(=O)[C@H](Cc2ccccc2)NC1=O)C(=O)O [Compound A] the “most frequent adverse events” value (PV patients; 10-80 mg SC weekly) was “injection site reaction (ISR) reported by three patients”, the tolerability (PV patients; 10-80 mg SC weekly) was “well tolerated” and the “plasma concentrations of Compound A, lower end of range (below detectable)” value (PV patients; [5]) was less than 2 ng/mL. The “plasma concentrations of Compound A, upper end of range” value (PV patients; [5]) was 866 ng/mL, the platelet counts (PV patients; over the course of treatment, FIG. 14) was “remained generally steady” and the leukocyte count (PV patients; over the course of treatment, FIG. 16) was “remained generally steady”. The “grade of most injection site reactions” value (PV patients; transient, no patient discontinued) was 1-2 grade, the platelets (Cynomolgus monkeys [1]; 6 mg/kg/dose, male and female, FIG. 5) was “significantly elevated levels of platelets” and the “total bilirubin (tBili)” value (Cynomolgus monkeys [1]; at ≥2 mg/kg/day, treatment period, FIG. 4) was “increase in total bilirubin”. For the same molecule, the “bone marrow (femur, sternum) findings” value (Cynomolgus monkeys [1]; at ≥2 mg/kg/dose) was “hematopoietic hypercellularity occurred in bone marrow”, the “liver and spleen findings” value (Cynomolgus monkeys [1]; at ≥2 mg/kg/dose) was “extramedullary hematopoiesis and hemosiderin deposition was observed in the liver and spleen” and the adverse events (healthy subjects) was “without significant adverse events”.

Molecule CC[C@@H](C)[C@@H](NC(=O)[C@H](N)Cc1ccccc1)C(=O)N[C@H](CS)C(=O)N[C@@H](C(=O)N1CCC[C@@H]1C(=O)N[C@H](Cc1ccccc1)C(=O)N[C@H](Cc1c[nH]cn1)C(=O)N[C@@H](C(=O)N[C@H](CC(=O)O)C(N)=O)[C@H](C)O)[C@H](C)CC [RI-Mini Hepcidin, Hy-DPhe-DIle-DCys-DIle-DPro-DPhe-DHis-DThr-DAsp-NH2] has an EC50 (human ferroportin) greater than 10 µM.

In the case of N#CC[C@H](C1CCCC1)n1cc(-c2ncnc3[nH]ccc23)cn1 [ruxolitinib], the thromboembolic events [2] is listed as 1 event.

For “Isovaleric acid-DTHFPCIKF(K(PEG11-Palm))PRSK[Sar]CK-NH2 [Compound B]”, the “time of maximal serum iron reduction” value (Cynomolgus monkeys [3]; 2.93 mg/kg SC) was “about 12 hour”, the “serum iron reduction, lower than pre-dose levels” value (Cynomolgus monkeys [3]; 2.93 mg/kg SC, at about 12 hour) was 12 fold and the “serum concentrations having maximum effect on serum iron” value (Cynomolgus monkeys [3]; SC single dose) was 50 to 125 ng/mL. For the same molecule, the “serum concentrations that were effective on serum iron” value (Cynomolgus monkeys [3]; SC single dose) was 25 to 125 ng/mL.

In the case of “minihepcidin: hepcidin mimetic administered to PV mice in Casu et al., Blood 2016 (DTHFPICIF)”, the hematocrit (PV mice) is listed as “normalizes hematocrit” and the splenomegaly (PV mice) is listed as “significantly reduces splenomegaly”.

For H-DTHFPICIF-NH2 [Mini-Hepcidin], the “Potency EC50 (nM); ferroportin internalization/degradation, decrease in GFP fluorescence of ferroportin-GFP HEK293 cells” value [4] was 712 nM.

B1: RI-Mini Hepcidin (peptide)
peptide: FICIPFHTD
modifications: all residues are D-amino acids (Hy-DPhe-DIle-DCys-DIle-DPro-DPhe-DHis-DThr-DAsp-NH2); C-terminal amide
For B1, the “Potency EC50 (nM); ferroportin internalization/degradation, decrease in GFP fluorescence of ferroportin-GFP HEK293 cells” value [4] was greater than 10000 nM.
